# Assay results reported in the NIST ThermoML archive (doi:10.1016/j.tca.2004.08.013).
# ± gives the expanded uncertainty stated by the source.
# Legend:
# [1] = 101.33 kPa, Liquid
# [2] = xn = mol fraction of the nth substance listed; settings: 101.3 kPa, Liquid
structure (smiles),measurement,setting,value
ClC(Cl)Cl [trichloromethane],mass density,[1]; 303.15 K,1470.64 ± 1.2 kg/m3
same,viscosity,[1]; 303.15 K,0.52 ± 0.009 mPa·s
same,mass density,[1]; 313.15 K,1448.43 ± 1.1 kg/m3
same,viscosity,[1]; 313.15 K,0.471 ± 0.009 mPa·s
CCCN [propan-1-amine],mass density,[1]; 303.15 K,706.1 ± 0.84 kg/m3
same,viscosity,[1]; 303.15 K,0.353 ± 0.007 mPa·s
same,mass density,[1]; 313.15 K,696.04 ± 0.86 kg/m3
same,viscosity,[1]; 313.15 K,0.313 ± 0.007 mPa·s
Clc1ccccc1 [chlorobenzene],mass density,[1]; 303.15 K,1095.49 ± 0.45 kg/m3
same,viscosity,[1]; 303.15 K,0.718 ± 0.012 mPa·s
CCCN(CCC)CCC [tripropylamine],mass density,[1]; 303.15 K,749.15 ± 0.78 kg/m3
same,viscosity,[1]; 303.15 K,0.598 ± 0.011 mPa·s
same,mass density,[1]; 313.15 K,740.41 ± 0.79 kg/m3
same,viscosity,[1]; 313.15 K,0.538 ± 0.01 mPa·s
CCCCN [1-butanamine],mass density,[1]; 303.15 K,728.65 ± 0.81 kg/m3
same,viscosity,[1]; 303.15 K,0.444 ± 0.009 mPa·s
same,mass density,[1]; 313.15 K,719.17 ± 0.82 kg/m3
same,viscosity,[1]; 313.15 K,0.393 ± 0.008 mPa·s
ClC(Cl)(Cl)Cl [tetrachloromethane],mass density,[1]; 303.15 K,1574.78 ± 1.4 kg/m3
same,viscosity,[1]; 303.15 K,0.852 ± 0.014 mPa·s
same,mass density,[1]; 313.15 K,1555.02 ± 1.4 kg/m3
same,viscosity,[1]; 313.15 K,0.76 ± 0.013 mPa·s
CCN(CC)CC [triethylamine],mass density,[1]; 303.15 K,718.44 ± 0.82 kg/m3
same,viscosity,[1]; 303.15 K,0.33 ± 0.007 mPa·s
CCCCOC(C)=O [butyl ethanoate],mass density,[1]; 303.15 K,871.28 ± 0.48 kg/m3
same,viscosity,[1]; 303.15 K,0.644 ± 0.011 mPa·s
CCOC(C)=O [ethyl acetate],mass density,[1]; 303.15 K,888.42 ± 0.45 kg/m3
same,viscosity,[1]; 303.15 K,0.399 ± 0.008 mPa·s
O=[N+]([O-])c1ccccc1 [nitrobenzene],mass density,[1]; 303.15 K,1193.4 ± 0.63 kg/m3
same,viscosity,[1]; 303.15 K,1.617 ± 0.025 mPa·s
CCCCNCCCC [dibutylamine],mass density,[1]; 303.15 K,752.28 ± 0.77 kg/m3
same,viscosity,[1]; 303.15 K,0.758 ± 0.013 mPa·s
same,mass density,[1]; 313.15 K,743.44 ± 0.78 kg/m3
same,viscosity,[1]; 313.15 K,0.665 ± 0.012 mPa·s
CCCN(CCC)CCC [tripropylamine] + ClC(Cl)(Cl)Cl,mass density,"[2]; 303.15 K, x1 = 0.0103",1558.08 ± 1.5 kg/m3
same,viscosity,"[2]; 303.15 K, x1 = 0.0103",0.848 ± 0.012 mPa·s
same,mass density,"[2]; 303.15 K, x1 = 0.0203",1542.01 ± 1.5 kg/m3
same,viscosity,"[2]; 303.15 K, x1 = 0.0203",0.84 ± 0.012 mPa·s
same,mass density,"[2]; 303.15 K, x1 = 0.0304",1526.35 ± 1.4 kg/m3
same,viscosity,"[2]; 303.15 K, x1 = 0.0304",0.829 ± 0.011 mPa·s
same,mass density,"[2]; 303.15 K, x1 = 0.0398",1511.85 ± 1.4 kg/m3
same,viscosity,"[2]; 303.15 K, x1 = 0.0398",0.819 ± 0.011 mPa·s
same,mass density,"[2]; 303.15 K, x1 = 0.0497",1496.93 ± 1.4 kg/m3
same,viscosity,"[2]; 303.15 K, x1 = 0.0497",0.811 ± 0.011 mPa·s
same,mass density,"[2]; 303.15 K, x1 = 0.0606",1480.86 ± 1.4 kg/m3
same,viscosity,"[2]; 303.15 K, x1 = 0.0606",0.802 ± 0.011 mPa·s
same,mass density,"[2]; 303.15 K, x1 = 0.0695",1468.02 ± 1.3 kg/m3
same,viscosity,"[2]; 303.15 K, x1 = 0.0695",0.795 ± 0.011 mPa·s
same,mass density,"[2]; 303.15 K, x1 = 0.0786",1455.03 ± 1.3 kg/m3
same,viscosity,"[2]; 303.15 K, x1 = 0.0786",0.788 ± 0.011 mPa·s
same,mass density,"[2]; 303.15 K, x1 = 0.0893",1440.17 ± 1.3 kg/m3
same,viscosity,"[2]; 303.15 K, x1 = 0.0893",0.78 ± 0.011 mPa·s
same,mass density,"[2]; 313.15 K, x1 = 0.0103",1538.54 ± 1.5 kg/m3
same,viscosity,"[2]; 313.15 K, x1 = 0.0103",0.754 ± 0.011 mPa·s
same,mass density,"[2]; 313.15 K, x1 = 0.0203",1522.71 ± 1.4 kg/m3
same,viscosity,"[2]; 313.15 K, x1 = 0.0203",0.747 ± 0.01 mPa·s
same,mass density,"[2]; 313.15 K, x1 = 0.0304",1507.24 ± 1.4 kg/m3
same,viscosity,"[2]; 313.15 K, x1 = 0.0304",0.739 ± 0.01 mPa·s
same,mass density,"[2]; 313.15 K, x1 = 0.0398",1492.94 ± 1.4 kg/m3
same,viscosity,"[2]; 313.15 K, x1 = 0.0398",0.733 ± 0.01 mPa·s
same,mass density,"[2]; 313.15 K, x1 = 0.0497",1478.28 ± 1.4 kg/m3
same,viscosity,"[2]; 313.15 K, x1 = 0.0497",0.726 ± 0.01 mPa·s
same,mass density,"[2]; 313.15 K, x1 = 0.0606",1462.46 ± 1.3 kg/m3
same,viscosity,"[2]; 313.15 K, x1 = 0.0606",0.718 ± 0.01 mPa·s
same,mass density,"[2]; 313.15 K, x1 = 0.0695",1449.76 ± 1.3 kg/m3
same,viscosity,"[2]; 313.15 K, x1 = 0.0695",0.712 ± 0.01 mPa·s
same,mass density,"[2]; 313.15 K, x1 = 0.0786",1437.01 ± 1.3 kg/m3
same,viscosity,"[2]; 313.15 K, x1 = 0.0786",0.706 ± 0.01 mPa·s
same,mass density,"[2]; 313.15 K, x1 = 0.0893",1422.3 ± 1.2 kg/m3
same,viscosity,"[2]; 313.15 K, x1 = 0.0893",0.699 ± 0.01 mPa·s
"C1COCCO1 [1,4-dioxane]",mass density,[1]; 303.15 K,1022.3 ± 0.3 kg/m3
same,viscosity,[1]; 303.15 K,1.086 ± 0.018 mPa·s
CCC(C)=O [butanone],mass density,[1]; 303.15 K,799.69 ± 0.61 kg/m3
same,viscosity,[1]; 303.15 K,0.365 ± 0.007 mPa·s
CCCN [propan-1-amine] + ClC(Cl)Cl,mass density,"[2]; 303.15 K, x1 = 0.01",1463.1 ± 1.3 kg/m3
same,viscosity,"[2]; 303.15 K, x1 = 0.01",0.523 ± 0.008 mPa·s
same,mass density,"[2]; 303.15 K, x1 = 0.0207",1454.77 ± 1.3 kg/m3
same,viscosity,"[2]; 303.15 K, x1 = 0.0207",0.526 ± 0.008 mPa·s
same,mass density,"[2]; 303.15 K, x1 = 0.0296",1447.98 ± 1.3 kg/m3
same,viscosity,"[2]; 303.15 K, x1 = 0.0296",0.529 ± 0.008 mPa·s
same,mass density,"[2]; 303.15 K, x1 = 0.0426",1437.89 ± 1.3 kg/m3
same,viscosity,"[2]; 303.15 K, x1 = 0.0426",0.533 ± 0.008 mPa·s
same,mass density,"[2]; 303.15 K, x1 = 0.0491",1432.95 ± 1.3 kg/m3
same,viscosity,"[2]; 303.15 K, x1 = 0.0491",0.536 ± 0.008 mPa·s
same,mass density,"[2]; 303.15 K, x1 = 0.0595",1424.84 ± 1.2 kg/m3
same,viscosity,"[2]; 303.15 K, x1 = 0.0595",0.539 ± 0.008 mPa·s
same,mass density,"[2]; 303.15 K, x1 = 0.0689",1417.67 ± 1.2 kg/m3
same,viscosity,"[2]; 303.15 K, x1 = 0.0689",0.542 ± 0.008 mPa·s
same,mass density,"[2]; 303.15 K, x1 = 0.0796",1409.35 ± 1.2 kg/m3
same,viscosity,"[2]; 303.15 K, x1 = 0.0796",0.544 ± 0.008 mPa·s
same,mass density,"[2]; 303.15 K, x1 = 0.096",1396.86 ± 1.2 kg/m3
same,viscosity,"[2]; 303.15 K, x1 = 0.096",0.548 ± 0.008 mPa·s
same,mass density,"[2]; 313.15 K, x1 = 0.01",1441.12 ± 1.3 kg/m3
same,viscosity,"[2]; 313.15 K, x1 = 0.01",0.474 ± 0.007 mPa·s
same,mass density,"[2]; 313.15 K, x1 = 0.0207",1433.07 ± 1.3 kg/m3
same,viscosity,"[2]; 313.15 K, x1 = 0.0207",0.478 ± 0.007 mPa·s
same,mass density,"[2]; 313.15 K, x1 = 0.0296",1426.56 ± 1.2 kg/m3
same,viscosity,"[2]; 313.15 K, x1 = 0.0296",0.481 ± 0.007 mPa·s
same,mass density,"[2]; 313.15 K, x1 = 0.0426",1416.8 ± 1.2 kg/m3
same,viscosity,"[2]; 313.15 K, x1 = 0.0426",0.485 ± 0.007 mPa·s
same,mass density,"[2]; 313.15 K, x1 = 0.0491",1411.95 ± 1.2 kg/m3
same,viscosity,"[2]; 313.15 K, x1 = 0.0491",0.488 ± 0.007 mPa·s
same,mass density,"[2]; 313.15 K, x1 = 0.0595",1403.97 ± 1.2 kg/m3
same,viscosity,"[2]; 313.15 K, x1 = 0.0595",0.491 ± 0.007 mPa·s
same,mass density,"[2]; 313.15 K, x1 = 0.0689",1396.96 ± 1.2 kg/m3
same,viscosity,"[2]; 313.15 K, x1 = 0.0689",0.495 ± 0.007 mPa·s
same,mass density,"[2]; 313.15 K, x1 = 0.0796",1388.75 ± 1.2 kg/m3
same,viscosity,"[2]; 313.15 K, x1 = 0.0796",0.496 ± 0.007 mPa·s
same,mass density,"[2]; 313.15 K, x1 = 0.096",1376.41 ± 1.1 kg/m3
same,viscosity,"[2]; 313.15 K, x1 = 0.096",0.5 ± 0.007 mPa·s
CCCNCCC [dipropylamine],mass density,[1]; 303.15 K,731.21 ± 0.8 kg/m3
same,viscosity,[1]; 303.15 K,0.512 ± 0.01 mPa·s
same,mass density,[1]; 313.15 K,726.15 ± 3 kg/m3
same,viscosity,[1]; 313.15 K,0.423 ± 0.008 mPa·s
CCCCN(CCCC)CCCC [tributylamine],mass density,[1]; 303.15 K,770.21 ± 0.74 kg/m3
same,viscosity,[1]; 303.15 K,1.167 ± 0.02 mPa·s
same,mass density,[1]; 313.15 K,763.11 ± 0.75 kg/m3
same,viscosity,[1]; 313.15 K,0.97 ± 0.017 mPa·s
